Results published in patent publication US7598382B2, “Aryl substituted imidazoquinolines” (Coley Pharmaceutical Group, Inc., priority 2002, dated 2009).

| melting point | Compound |
| --- | --- |
| 240 to 241 °C | CCOCc1nc2c(N)nc3cc(-c4cncc(CO)c4)ccc3c2n1CC1CCCCC1 [Example 439, 1-Cyclohexylmethyl-2-ethoxymethyl-7-(5-hydroxymethylpyridin-3-yl)-1H-imidazo[4,5-c]quinolin-4-amine] |
| > 250 °C | CCCc1nc2c(N)nc3cc(/C=C/c4cccc(S(N)(=O)=O)c4)ccc3c2n1CC(C)C [Example 440, (E)-3-{2-[4-Amino-1-(2-methylpropyl)-2-propyl-1H-imidazo[4,5-c]quinolin-7-yl]vinyl}benzenesulfonamide] |
| 210 to 212 °C | CCCc1nc2c(N)nc3cc(/C=C/c4ccc5sc(C)nc5c4)ccc3c2n1CC(C)C [Example 441, (E)-7-[2-(2-Methylbenzothiazol-5-yl)vinyl]-1-(2-methylpropyl)-2-propyl-1H-imidazo[4,5-c]quinolin-4-amine] |
| 182 to 185 °C | CCCc1nc2c(N)nc3cc(/C=C/c4ccc(C)s4)ccc3c2n1CC(C)C [Example 442, (E)-1-(2-Methylpropyl)-7-[2-(5-methylthiophen-2-yl)vinyl]-2-propyl-1H-imidazo[4,5-c]quinolin-4-amine] |
| 181 to 183 °C | CCCc1nc2c(N)nc3cc(/C=C/c4cccc(OC)c4)ccc3c2n1CC(C)C [Example 443, (E)-7-[2-(3-Methoxyphenyl)vinyl]-1-(2-methylpropyl)-2-propyl-1H-imidazo[4,5-c]quinolin-4-amine] |
| 201 to 202 °C | CCCc1nc2c(N)nc3cc(/C=C/c4ccc(OC)cc4)ccc3c2n1CC(C)C [Example 444, (E)-7-[2-(4-Methoxyphenyl)vinyl]-1-(2-methylpropyl)-2-propyl-1H-imidazo[4,5-c]quinolin-4-amine] |
| 214 to 216 °C | CCCc1nc2c(N)nc3cc(/C=C/c4ccccc4OC)ccc3c2n1CC(C)C [Example 445, (E)-7-[2-(2-Methoxyphenyl)vinyl]-1-(2-methylpropyl)-2-propyl-1H-imidazo[4,5-c]quinolin-4-amine] |
| 250 to 251 °C | CCCc1nc2c(N)nc3cc(CCc4cccc(S(N)(=O)=O)c4)ccc3c2n1CC(C)C [Example 456, 3-{2-[4-Amino-1-(2-methylpropyl)-2-propyl-1H-imidazo[4,5-c]quinolin-7-yl]ethyl}benzenesulfonamide] |
| 155 to 157 °C | CCCc1nc2c(N)nc3cc(CCc4cccc(OC)c4)ccc3c2n1CC(C)C [Example 458, 7-[2-(3-Methoxyphenyl)ethyl]-1-(2-methylpropyl)-2-propyl-1H-imidazo[4,5-c]quinolin-4-amine] |
| 150 to 152 °C | CCCc1nc2c(N)nc3cc(CCc4ccc(C)s4)ccc3c2n1CC(C)C [Example 461, 1-(2-Methylpropyl)-7-[2-(5-methylthiophen-2-yl)ethyl]-2-propyl-1H-imidazo[4,5-c]quinolin-4-amine] |
| 159 to 160 °C | CCOCc1nc2c(N)nc3cc(-n4cccn4)ccc3c2n1CCCOC [Example 472, 2-Ethloxymethyl-1-(3-methoxypropyl)-7-(pyrazol-1-yl)-1H-imidazo[4,5-c]quinolin-4-amine] |
| 167.5 to 169 °C | CCOCc1nc2c(N)nc3cc(-n4ccnc4)ccc3c2n1CCCOC [Example 473, 2-Ethoxymethyl-7-(imidazol-1-yl)-1-(3-methoxypropyl)-1H-imidazo[4,5-c]quinolin-4-amine] |
| 325 to 328 °C | CCOCc1nc2c(N)nc3cc(-c4ccc(-c5ccc6c(c5)nc(N)c5nc(COCC)n(CC(C)(C)O)c56)cc4)ccc3c2n1CC(C)(C)O [Example 474, 1-(4-Amino-7-{4-[4-amino-2-ethoxymethyl-1-(2-hydroxy-2-methylpropyl)-1H-imidazo[4,5-c]quinolin-7-yl]phenyl}-2-ethoxymethyl-1H-imidazo[4,5-c]quinolin-1-yl)-2-methylpropan-2-ol] |
| 261 to 265 °C | CCCCCCC1(CCCCCC)c2cc(-c3ccc4c(c3)nc(N)c3nc(COCC)n(CC(C)(C)O)c34)ccc2-c2ccc(-c3ccc4c(c3)nc(N)c3nc(COCC)n(CC(C)(C)O)c34)cc21 [Example 475, 1-(4-Amino-7-{7-[4-amino-2-ethoxymethyl-1-(2-hydroxy-2-methylpropyl)-1H-imidazo[4,5-c]quinolin-7-yl]-9,9-dihexyl-9H-fluoren-2-yl}-2-ethoxymethyl-1H-imidazo[4,5-c]quinolin-1-yl)-2-methylpropan-2-ol] |
| 251 to 254 °C | CCCCCCC1(CCCCCC)c2cc(-c3ccc4c(c3)nc(N)c3nc(CCOC)n(CCCN5CCCC5=O)c34)ccc2-c2ccc(-c3ccc4c(c3)nc(N)c3nc(CCOC)n(CCCN5CCCC5=O)c34)cc21 [Example 476, 1-[4-Amino-7-(7-{4-amino-2-(2-methoxyethyl)-1-[3-(pyrrolidin-2-one)propyl]-1H-imidazo[[4,5-c]quinolin-7-yl}-9,9-dihexyl-9H-fluoren-2-yl)-2-(2-methoxyethyl)-1H-imidazo[4,5-c]quinolin-1-yl]propyl}pyrrolidin-2-one] |
| 254 to 255 °C | CCOCc1nc2c(N)nc3cc(-c4cccc(CS(N)(=O)=O)c4)ccc3c2n1CC1CCOCC1 [Example 480, {3-[4-Amino-2-ethoxymethyl-1-(tetrahydropyran-4-ylmethyl)-1H-imidazo[4,5-c]quinolin-7-yl]phenyl}methanesulfonamide] |
| 263 to 265 °C | CC(C)Cn1cnc2c(N)nc3cccc(-c4ccccc4)c3c21 [Example 482, 1-(2-Methylpropyl)-9-phenyl-1H-imidazo[4,5-c]quinolin-4-amine] |
| 181 to 182 °C | CCCOc1ccc(-c2cccc3nc(N)c4ncn(CC(C)C)c4c23)cc1 [Example 483, 1-(2-Methylpropyl)-9-(4-propoxyphenyl)-1H-imidazo[4,5-c]quinolin-4-amine] |
| 234 to 235 °C | CCOCc1nc2c(N)nc3c(-c4cccc(CS(N)(=O)=O)c4)cccc3c2n1CC(C)(C)O [Example 484, {3-[4-Amino-2-ethoxymethyl-1-(2-hydroxy-2-methylpropyl)-1H-imidazo[4,5-c]quinolin-6-yl]phenyl}methanesulfonamide] |
| 199 to 201 °C | CCOCc1nc2c(N)nc3c(-c4cccnc4)cccc3c2n1CC(C)(C)O [Example 485, 1-[4-Amino-2-ethoxymethyl-6-(pyridin-3-yl)-1H-imidazo[4,5-c]quinolin-1-yl]-2-methylpropan-2-ol] |
| 164 to 166 °C | CCOCc1nc2c(N)nc3c(-c4cccc(C(=O)N5CCOCC5)c4)cccc3c2n1CC(C)(C)O [Example 486, {3-[4-Amino-2-ethoxymethyl-1-(2-hydroxy-2-methylpropyl)-1H-imidazo[4,5-c]quinolin-6-yl]phenyl}morpholin-4-ylmethanone] |
| 155 to 156 °C | CCOCc1nc2c(N)nc3cc(-c4cccnc4)ccc3c2n1C[C@@H]1COC(C)(C)O1 [Example 487, (R)-1-[(2,2-Dimethyl-1,3-dioxolan-4-yl)methyl]-2-ethoxymethyl-7-(pyridin-3-yl)-1H-imidazo[4,5-c]quinolin-4-amine] |
| 202 to 204 °C | CCOCc1nc2c(N)nc3cc(-c4cccnc4)ccc3c2n1C[C@@H](O)CO [Example 488, (R)-3-[4-Amino-2-ethoxymethyl-7-(pyridin-3-yl)-1H-imidazo[4,5-c]quinolin-1-yl]propane-1,2-diol] |
